The IC50 is the concentration at which inhibition is half-maximal. A low value points to greater potency in that assay.

The results in this text go back to US8703765B2, “Cyclic inhibitors of 11β-hydroxysteroid dehydrogenase 1” (Boehringer Ingelheim International GmbH, priority 2009, dated 2014).

This test deals with T1, 11β-HSD1 (Homo sapiens, UniProt P28845).
T1 construct: detecting cortisol generated from cortisterone by human liver microsomes; from tissue; host or cells: human liver microsomes
T1 sequence (P28845 whole entry): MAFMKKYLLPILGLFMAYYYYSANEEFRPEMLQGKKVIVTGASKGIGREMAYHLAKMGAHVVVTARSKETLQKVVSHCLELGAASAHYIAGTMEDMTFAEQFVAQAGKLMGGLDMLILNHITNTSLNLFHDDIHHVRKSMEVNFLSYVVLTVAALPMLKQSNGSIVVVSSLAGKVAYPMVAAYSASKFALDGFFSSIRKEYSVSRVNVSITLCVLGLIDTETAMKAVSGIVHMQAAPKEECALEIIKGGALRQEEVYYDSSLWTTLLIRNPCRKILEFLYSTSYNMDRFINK
Description: In vitro inhibition of 11β-HSD1, HTRF detection of cortisol generated by human liver microsomes. The following applies: cortisone 80 nM, NADPH 200 μM, 1 hour at 37° C., pH 6.0. The test is classed as biochemical. The procedure: In vitro inhibition of 11 β-HSD1 by test compounds was determined with HTRF (Homogeneous Time-Resolved Fluorescence) technology (cisbio international, France) detecting cortisol generated from cortisterone by human liver microsomes. Briefly, compounds were incubated for 1 hour at 37° C. in Tris buffer (20 mM tris, 5 mM EDTA, pH 6.0) containing NADPH (200 μM) and cortisone (80 nM). Cortisol generated in the reaction was then detected with a competitive immunoassay, involving two HTRF conjugates: cortisol linked to XL665 and anti-cortisol antibody labeled with Europium cryptate. The incubation period for detection reaction was typically 2 hours. The amount of cortisol was determined by reading the time-resolved fluorescence of the wells (Ex 320/75 nm; Em 615/8.5 nm and 665/7.5 nm). The ratio of the two emission signals is then calculated (Em665*10000/Em615). […] Each assay also contained a calibration curve with cortisol to transform the fluorescent data into cortisol concentrations. Percent inhibition of each compound was determined relative to the carbenoxolone signal and IC50 curves were generated.
In Table 1 the 11β-HSD 1 inhibitory activities, determined as described above, are compiled.
A general note: Time-resolved FRET reads energy transfer from a long-lived donor to a nearby acceptor.
`CC(C)(O)C[C@@]1(c2ccccc2)CCN([C@H](c2ccc(Br)cc2)C2CC2)C(=O)O1` (racemic) [Example 2, 3-[(4-Bromo-phenyl)-cyclopropyl-methyl]-6-(2-hydroxy-2-methyl-propyl)-6-phenyl-[1,3]oxazinan-2-one] returned a concentration for half-maximal inhibition (IC50) of 960 nM.
Then `Cn1ccc(-c2ccc([C@H](C3CC3)N3CC[C@@](CC(C)(C)O)(c4ccccc4)OC3=O)cc2)cc1=O` (racemic) [Example 4, 3-{Cyclopropyl-[4-(1-methyl-2-oxo-1,2-dihydro-pyridin-4-yl)-phenyl]-methyl}-6-(2-hydroxy-2-methyl-propyl)-6-phenyl-[1,3]oxazinan-2-one], with more than 10000 nM.
Then `CC(C)(O)CC1(c2ccccc2)CCN(C(c2ccc(Br)cc2)C2CC2)C(=O)O1` (stereo not drawn) [Example 1, 3-[(4-Bromo-phenyl)-cyclopropyl-methyl]-6-(2-hydroxy-2-methyl-propyl)-6-phenyl-[1,3]oxazinan-2-one], with 65 nM.
To `Cn1ccc(-c2ccc(C(C3CC3)N3CCC(CC(C)(C)O)(c4ccccc4)OC3=O)cc2)cc1=O` (stereo not drawn) [Example 3, 3-{Cyclopropyl-[4-(1-methyl-2-oxo-1,2-dihydro-pyridin-4-yl)-phenyl]-methyl}-6-(2-hydroxy-2-methyl-propyl)-6-phenyl-[1,3]oxazinan-2-one] belongs 111 nM.
As for `Cn1ccc(-c2ccc([C@@H](C3CC3)N3CC[C@@](CC(C)(C)O)(c4ccccc4)OC3=O)cc2)cc1=O` [Example 3b, 3-{(R)-cyclopropyl-[4-(1-methyl-2-oxo-1,2-dihydro-pyridin-4-yl)-phenyl]methyl}-(R)-6-(2-hydroxy-2-methyl-propyl)-6-phenyl-[1,3]oxazinan-2-one], the IC50 was more than 4500 nM.
`Cn1cc(-c2ccc(C(C3CC3)N3CCC(CC(C)(C)O)(c4ccccc4)OC3=O)cc2)ccc1=O` (stereo not drawn) [Example 5, 3-{Cyclopropyl-[4-(1-methyl-6-oxo-1,6-dihydro-pyridin-3-yl)-phenyl]-methyl}-6-(2-hydroxy-2-methyl-propyl)-6-phenyl-[1,3]oxazinan-2-one]: the IC50 was determined as 35 nM.
For the molecule `CC(C)(O)C[C@]1(c2ccccc2)CCN([C@H](c2ccc(Br)cc2)C2CC2)C(=O)O1` [Example 6, 3-[(S)-(4-Bromo-phenyl)-cyclopropyl-methyl]-(S)-6-(2-hydroxy-2-methyl-propyl)-6-phenyl-[1,3]oxazinan-2-one], 53 nM corresponded to half-maximal inhibition (IC50).
`Cn1ccc(-c2ccc([C@H](C3CC3)N3CC[C@](CC(C)(C)O)(c4ccccc4)OC3=O)cc2)cc1=O` [Example 7, 3-{(S)-Cyclopropyl-[4-(1-methyl-2-oxo-1,2-dihydro-pyridin-4-yl)-phenyl]-methyl}-(S)-6-(2-hydroxy-2-methyl-propyl)-6-phenyl-[1,3]oxazinan-2-one]: the IC50 turned out to be 64 nM.
Then `Cc1ccc(-c2ccc([C@H](C3CC3)N3CC[C@](CC(C)(C)O)(c4ccccc4)OC3=O)cc2)nn1` [Example 8, 3-{(S)-Cyclopropyl-[4-(6-methyl-pyridazin-3-yl)-phenyl]methyl}-(S)-6-(2-hydroxy-2-methyl-propyl)-6-phenyl-[1,3]oxazinan-2-one], with 29 nM.
To `CC(C)(O)C[C@]1(c2ccccc2)CCN([C@H](c2ccc(-c3ccn(C4CC4)c(=O)c3)cc2)C2CC2)C(=O)O1` [Example 9, 3-{(S)-Cyclopropyl-[4-(1-cyclopropyl-2-oxo-1,2-dihydro-pyridin-4-yl)-phenyl]-methyl}-(S)-6-(2-hydroxy-2-methyl-propyl)-6-phenyl-[1,3]oxazinan-2-one] belongs 38 nM; to `Cn1cc(-c2ccc([C@H](C3CC3)N3CC[C@](CC(C)(C)O)(c4ccccc4)OC3=O)cc2)ccc1=O` [Example 10, 3-{(S)-Cyclopropyl-[4-(1-methyl-6-oxo-1,6-dihydro-pyridin-3-yl)-phenyl]-methyl}-(S)-6-(2-hydroxy-2-methyl-propyl)-6-phenyl-[1,3]oxazinan-2-one], 70 nM.
Then `Cc1ncc(-c2ccc([C@H](C3CC3)N3CC[C@](CC(C)(C)O)(c4ccccc4)OC3=O)cc2)cn1` [Example 11, 3-{(S)-Cyclopropyl-[4-(2-methyl-pyrimidin-5-yl)-phenyl]methyl}-(S)-6-(2-hydroxy-2-methyl-propyl)-6-phenyl-[1,3]oxazinan-2-one], with 54 nM.
